The values that follow come from ChEMBL document CHEMBL1134928, “Synthesis and evaluation of potent pyrrolidine H(3) antagonists” (Bioorg Med Chem Lett, 2002).

Assay [1] addresses T1, Histamine H3 receptor (Rattus norvegicus, UniProt Q9QYN8). In words: Binding affinity against rat histamine H3 receptor.
Assay [2] addresses T2, Histamine H2 receptor (Homo sapiens, UniProt P25021). As to the kind of experiment: Binding affinity to the human Histamine H2 receptor.
Assay [3] has as its target T3, Histamine H1 receptor (Homo sapiens, UniProt P35367). In words: Binding affinity to the human Histamine H1 receptor.
For assay [4], the target named is T3, Histamine H1 receptor. As to the kind of experiment: Binding affinity towards human Histamine H1 receptor (For compound 11).
Assay [5] has as its target T1, Histamine H3 receptor. In words: Binding affinity towards rat Histamine H3 receptor (For compound 11).
In assay [6] the target is T2, Histamine H2 receptor. As to the kind of experiment: Binding affinity towards human Histamine H2 receptor (For compound 11).
In assay [7] the target is T1, Histamine H3 receptor. As to the kind of experiment: Binding affinity towards rats Histamine type 3 (H3) receptor.

Usually pKi stands for the negative decadic logarithm of the Ki, by convention in mol/L. Read a high pKi as a small Ki.

pKi: −log10 of the molar value.

T3 sequence (P35367 whole entry): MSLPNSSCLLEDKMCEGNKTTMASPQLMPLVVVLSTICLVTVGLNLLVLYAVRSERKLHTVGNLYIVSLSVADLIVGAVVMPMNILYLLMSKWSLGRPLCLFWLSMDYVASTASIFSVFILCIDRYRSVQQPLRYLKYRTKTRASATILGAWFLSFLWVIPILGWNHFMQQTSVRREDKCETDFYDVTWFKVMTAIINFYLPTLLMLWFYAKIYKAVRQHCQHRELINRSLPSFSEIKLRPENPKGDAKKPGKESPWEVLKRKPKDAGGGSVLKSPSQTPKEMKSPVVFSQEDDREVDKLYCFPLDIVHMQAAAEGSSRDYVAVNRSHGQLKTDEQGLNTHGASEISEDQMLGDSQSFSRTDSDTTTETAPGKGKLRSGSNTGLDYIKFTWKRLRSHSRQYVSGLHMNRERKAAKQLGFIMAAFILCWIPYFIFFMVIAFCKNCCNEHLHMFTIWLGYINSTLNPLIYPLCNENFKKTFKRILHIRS
T2 sequence (P25021 whole entry): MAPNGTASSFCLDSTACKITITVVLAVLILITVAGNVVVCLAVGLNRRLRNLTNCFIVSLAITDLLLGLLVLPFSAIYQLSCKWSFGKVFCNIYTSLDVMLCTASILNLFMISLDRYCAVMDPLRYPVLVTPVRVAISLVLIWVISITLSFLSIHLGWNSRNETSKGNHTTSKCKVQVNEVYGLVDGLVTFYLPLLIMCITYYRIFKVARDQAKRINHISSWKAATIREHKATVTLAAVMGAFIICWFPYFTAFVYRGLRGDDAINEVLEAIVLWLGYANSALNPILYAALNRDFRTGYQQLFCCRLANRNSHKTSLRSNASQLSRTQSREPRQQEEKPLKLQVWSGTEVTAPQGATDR
T1 sequence (Q9QYN8 whole entry): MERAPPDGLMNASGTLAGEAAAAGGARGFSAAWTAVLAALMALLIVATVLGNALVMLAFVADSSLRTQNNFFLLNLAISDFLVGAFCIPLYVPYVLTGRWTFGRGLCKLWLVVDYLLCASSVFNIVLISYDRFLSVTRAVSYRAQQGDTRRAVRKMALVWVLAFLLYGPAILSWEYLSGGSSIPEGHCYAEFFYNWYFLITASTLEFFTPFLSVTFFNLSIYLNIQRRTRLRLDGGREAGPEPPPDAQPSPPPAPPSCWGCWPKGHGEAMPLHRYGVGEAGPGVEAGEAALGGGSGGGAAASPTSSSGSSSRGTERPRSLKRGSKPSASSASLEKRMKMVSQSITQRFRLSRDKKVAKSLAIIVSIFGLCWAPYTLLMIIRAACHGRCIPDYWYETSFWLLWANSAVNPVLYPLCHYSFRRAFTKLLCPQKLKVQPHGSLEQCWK

As for `O=C(c1ccc(OCCCN2C[C@@H]3C[C@H]2CN3C(=O)C2CCCCC2)cc1)C1CC1`, the pKi at Histamine H3 receptor [1] was 6.87.

`CC(=O)c1ccc(OCCCN2CC[C@H](NC(=O)[C@@H](CO)NC(=O)OC(C)(C)C)C2)cc1`: the pKi was 4.00 on Histamine H2 receptor [2], 4.10 at Histamine H1 receptor [3] and 6.51 at Histamine H3 receptor [1].

With `O=C(c1ccc(OCCCN2CC[C@H](NS(=O)(=O)c3ccccc3Cl)C2)cc1)C1CC1`, the pKi was 6.00 on Histamine H2 receptor [2] and 5.35 on Histamine H1 receptor [3].

In the case of `CC(=O)c1ccc(OCCCN2CC[C@H](NC(=O)[C@@H](N)CO)C2)cc1`, the pKi on Histamine H2 receptor [2] is 4.66; at Histamine H1 receptor [3] it was 4.37; at Histamine H3 receptor [1] it was 6.82.

`CC(=O)c1ccc(OCCCN2CC[C@H](NC(=O)c3csc(-c4cccnc4)n3)C2)cc1`: the pKi at Histamine H2 receptor [2] was 5.21; on Histamine H1 receptor [3] it was 4.96; on Histamine H3 receptor [1], 7.26.

As for `N#Cc1ccc(S(=O)(=O)N[C@H]2CCN(CCCOc3ccc(C(=O)C4CC4)cc3)C2)cc1`, the pKi on Histamine H2 receptor [2] was 5.80; at Histamine H1 receptor [3] it was 4.70; on Histamine H3 receptor [1], 8.40.

In the case of `O=C(c1ccc(OCCCN2CC[C@H](NS(=O)(=O)c3cccc(Cl)c3)C2)cc1)C1CC1`, the pKi is 6.15 on Histamine H2 receptor [2], 5.44 on Histamine H1 receptor [3] and 8.52 at Histamine H3 receptor [1].

On to `CC(C)(C)c1ccc(S(=O)(=O)N[C@H]2CCN(CCCOc3ccc(C(=O)C4CC4)cc3)C2)cc1`, for which the pKi is 6.14 on Histamine H2 receptor [2], 5.64 at Histamine H1 receptor [3] and 8.28 at Histamine H3 receptor [1].

As to `O=C(c1ccc(OCCCN2CC[C@H](NS(=O)(=O)c3ccccc3F)C2)cc1)C1CC1`, the pKi on Histamine H2 receptor [2] was 5.81; on Histamine H1 receptor [3], 5.03; at Histamine H3 receptor [1] it was 8.57.

As to `COc1ccc(S(=O)(=O)N[C@H]2CCN(CCCOc3ccc(C(=O)C4CC4)cc3)C2)cc1`, the figures for the pKi at Histamine H2 receptor [2], at Histamine H1 receptor [3] and at Histamine H3 receptor [1] were 6.00, 5.36 and 8.54, respectively.

Take `CC(=O)c1ccc(OCCCN2CC[C@H](NC(=O)[C@@H](C)NC(=O)OC(C)(C)C)C2)cc1`: the pKi was 4.40 on Histamine H2 receptor [2], 4.25 on Histamine H1 receptor [3] and 6.51 at Histamine H3 receptor [1].

For the compound `O=C(c1ccc(OCCCN2C[C@@H]3C[C@H]2CN3C(=O)c2ccco2)cc1)C1CC1`, the pKi at Histamine H3 receptor [1] is 6.68.

In turn, `CC(C)(C)OC(=O)NCCC(=O)N1C[C@@H]2C[C@H]1CN2CCCOc1ccc(C(=O)C2CC2)cc1` gave a pKi on Histamine H3 receptor [1] of 7.15.

`C[C@@H](NC(=O)N1C[C@@H]2C[C@H]1CN2CCCOc1ccc(C(=O)C2CC2)cc1)C(=O)O`: at Histamine H3 receptor [1], the pKi is 6.38.

Compound `O=C(c1ccc(OCCCN2C[C@@H]3C[C@H]2CN3S(=O)(=O)c2ccccc2)cc1)C1CC1` showed a pKi at Histamine H3 receptor [1] of 7.72.

In turn, `O=C(c1ccc(OCCCN2C[C@@H]3C[C@H]2CN3C(=O)c2ccc(F)cc2)cc1)C1CC1` had a pKi at Histamine H3 receptor [1] of 6.59.

For `CC(=O)c1ccc(OCCCN2CC[C@H](NS(=O)(=O)c3ccc(C#N)cc3)C2)cc1`, the results for the pKi on Histamine H2 receptor [2], at Histamine H1 receptor [3] and on Histamine H3 receptor [1] were 5.64, 4.85 and 8.22, respectively.

`N#Cc1ccccc1S(=O)(=O)N[C@H]1CCN(CCCOc2ccc(C(=O)C3CC3)cc2)C1`: the pKi at Histamine H2 receptor [2] is 6.15; at Histamine H1 receptor [3] it was 5.21; on Histamine H3 receptor [1], 7.96.

Consider `N#Cc1cccc(S(=O)(=O)N[C@H]2CCN(CCCOc3ccc(C(=O)C4CC4)cc3)C2)c1`, for which the pKi at Histamine H2 receptor [2] is 6.05; at Histamine H1 receptor [3], 5.05; on Histamine H3 receptor [1], 8.55.

For `CC(=O)c1ccc(OCCCN2CC[C@H](NC(=O)[C@H](C)NC(=O)OC(C)(C)C)C2)cc1`, the figures for the pKi at Histamine H2 receptor [2], on Histamine H1 receptor [3] and at Histamine H3 receptor [1] were 4.62, 4.22 and 6.05, respectively.

The compound `O=C(O)CCNC(=O)N1C[C@@H]2C[C@H]1CN2CCCOc1ccc(C(=O)C2CC2)cc1` showed a pKi on Histamine H3 receptor [1] of 7.77.

Regarding `C[C@H](NC(=O)N1C[C@@H]2C[C@H]1CN2CCCOc1ccc(C(=O)C2CC2)cc1)C(=O)O`, at Histamine H3 receptor [1], the pKi was 6.63.

Turning to `O=C(c1ccc(OCCCN2CC[C@H](NS(=O)(=O)c3ccc(F)cc3)C2)cc1)C1CC1`, the figures for the pKi at Histamine H2 receptor [2], on Histamine H1 receptor [3] and on Histamine H3 receptor [1] were 6.30, 5.04 and 8.46, respectively.

Consider `CC(=O)c1ccc(OCCCN2CC[C@H](N)C2)cc1`, for which the pKi at Histamine H2 receptor [2] is 4.30; at Histamine H1 receptor [4] it was 4.00; at Histamine H1 receptor [3], 4.05; on Histamine H3 receptor [5] it was 6.17; at Histamine H2 receptor [6], 4.51.

`Cc1ccccc1S(=O)(=O)N[C@H]1CCN(CCCOc2ccc(C(=O)C3CC3)cc2)C1`: the pKi was 5.66 at Histamine H2 receptor [2], 4.80 on Histamine H1 receptor [3] and 7.96 on Histamine H3 receptor [1].

For the compound `O=C(c1ccc(OCCCN2CC[C@H](NS(=O)(=O)c3ccc(Br)cc3)C2)cc1)C1CC1`, the pKi is 6.54 on Histamine H2 receptor [2], 5.82 on Histamine H1 receptor [3] and 8.30 at Histamine H3 receptor [1].

For the compound `CCCCCC(=O)c1ccc(OCCCN2CCN(C(=O)OCC)CC2)cc1`, the pKi on Histamine H3 receptor [7] is 8.70.

Take `O=C(c1ccc(OCCCN2CC[C@H](NS(=O)(=O)c3ccccc3)C2)cc1)C1CC1`: the pKi at Histamine H2 receptor [2] was 5.92; at Histamine H1 receptor [3], 5.04; at Histamine H3 receptor [1] it was 8.52.

`O=C(c1ccc(OCCCN2CC[C@H](NS(=O)(=O)c3ccc(Cl)cc3)C2)cc1)C1CC1`: the pKi is 6.54 at Histamine H2 receptor [2], 5.60 at Histamine H1 receptor [3] and 8.42 on Histamine H3 receptor [1].

For `CC(=O)c1ccc(OCCCN2CC[C@H](NC(=O)c3ccc(C#N)cc3)C2)cc1`, the pKi at Histamine H2 receptor [2] was 5.21; at Histamine H1 receptor [3], 4.89; on Histamine H3 receptor [1], 7.40.

Take `O=C(c1ccc(OCCCN2CC[C@H](NS(=O)(=O)c3cccc(F)c3)C2)cc1)C1CC1`: the pKi was 5.80 at Histamine H2 receptor [2], 5.23 on Histamine H1 receptor [3] and 8.80 on Histamine H3 receptor [1].

For the compound `CC(=O)c1ccc(OCCCN2CC[C@H](NC(=O)c3cccnc3)C2)cc1`, the pKi on Histamine H2 receptor [2] was 5.46; at Histamine H1 receptor [3], 5.13.

For the compound `O=C(N[C@H]1CCN(CCCOc2ccc(C(=O)C3CC3)cc2)C1)c1csc(-c2cccnc2)n1`, the pKi is 5.40 at Histamine H2 receptor [2], 4.43 on Histamine H1 receptor [3] and 7.30 on Histamine H3 receptor [1].

In turn, `CCS(=O)(=O)N1C[C@@H]2C[C@H]1CN2CCCOc1ccc(C(=O)C2CC2)cc1` had a pKi on Histamine H3 receptor [1] of 6.92.

With `Cc1ccc(S(=O)(=O)N[C@H]2CCN(CCCOc3ccc(C(=O)C4CC4)cc3)C2)cc1`, the values for the pKi on Histamine H2 receptor [2], at Histamine H1 receptor [3] and on Histamine H3 receptor [1] were 6.42, 5.26 and 8.38, respectively.

Regarding `CC(=O)c1ccc(OCCCN2CC[C@H](NC(=O)c3cnccn3)C2)cc1`, the pKi at Histamine H2 receptor [2] is 5.30; at Histamine H1 receptor [3], 5.00; on Histamine H3 receptor [1], 6.69.

`Cn1cnc(S(=O)(=O)N[C@H]2CCN(CCCOc3ccc(C(=O)C4CC4)cc3)C2)c1`: the pKi on Histamine H2 receptor [2] was 5.15; at Histamine H1 receptor [3], 4.04; at Histamine H3 receptor [1], 8.00.

As to `O=C(c1ccc(OCCCN2C[C@@H]3C[C@H]2CN3C(=O)c2ccccn2)cc1)C1CC1`, on Histamine H3 receptor [1], the pKi was 6.72.

In the case of `Cc1cccc(S(=O)(=O)N[C@H]2CCN(CCCOc3ccc(C(=O)C4CC4)cc3)C2)c1`, the negative-log Ki (pKi) on Histamine H2 receptor [2] was 5.74; on Histamine H1 receptor [3], 5.18; on Histamine H3 receptor [1], 8.57.

At Histamine H3 receptor [1], `O=C(c1ccc(OCCCN2C[C@@H]3C[C@H]2CN3C(=O)c2ccccc2)cc1)C1CC1` had a pKi of 6.46.

With `CC(=O)c1ccc(OCCCN2CC[C@H](NC(=O)[C@H](CO)NC(=O)OC(C)(C)C)C2)cc1`, the pKi is 4.34 on Histamine H2 receptor [2], 4.12 at Histamine H1 receptor [3] and 6.23 at Histamine H3 receptor [1].

Take `CCc1ccc(S(=O)(=O)N[C@H]2CCN(CCCOc3ccc(C(=O)C4CC4)cc3)C2)cc1`: the pKi on Histamine H2 receptor [2] was 6.48; at Histamine H1 receptor [3] it was 5.64; at Histamine H3 receptor [1], 8.34.
